Key:
CmSTC1 = experiment: malachite green phosphate release assay, coupled to yeast pyrophosphatase; assay type: biochemical, Cubamyces menziesii; details: 5 mM MgCl2, Tris-HCl/MES/CAPS buffer, pH 7.8; FDP range 3.125 to 50 or 75 μM
CmSTC3 = experiment: as above; assay type: biochemical, Cubamyces menziesii; details: 5 mM MgCl2, Tris-HCl/MES/CAPS buffer, pH 7.8; FDP range 3.125 to 50 or 75 μM

`CC(C)=CCC/C(C)=C/CC/C(C)=C/COP(=O)(O)OP(=O)(O)O` [FDP] was tested, and the Km (CmSTC1) was 68.2 µM and the Km (CmSTC3) was 19.9 µM.

Source: article PMC12376244 (Chembiochem, 2025)
